Data reported in patent publication US20120270929A1, “MODULATION OF TTC39 EXPRESSION TO INCREASE HDL” (ISIS Pharmaceuticals, Inc., priority 2009, published 2012).
pIC50: −log10 of the molar value. Oligonucleotides are written 5' to 3', each unit as a sugar letter and its base; * is a phosphorothioate linkage, no mark a phosphodiester; rarer units and linkages stand in square brackets, end groups in braces. Plain capitals give the bases only. e = 2'-O-(2-methoxyethyl) (MOE); [5mC] = 5-methylcytosine; d = 2'-deoxy (DNA)

Tested on: murine TTC39B mRNA
Experiment: Antisense inhibition of murine TTC39B in mouse primary hepatocytes, single dose
Format: cell-based
Settings: 100 nM, cytofectin, ~24 h, vs untreated control; gapmers targeted to SEQ ID NO: 6
Method: Antisense oligonucleotides targeted to a TTC39B nucleic acid were tested for their effects on TTC39B mRNA in vitro. Cultured mouse primary hepatocytes at a density of 10,000 cells per well were transfected using cytofectin reagent with 100 nM antisense oligonucleotide. After a treatment period of approximately 24 hours, RNA was isolated from the cells and TTC39B mRNA levels were measured by quantitative real-time PCR. TTC39B mRNA levels were adjusted according to total RNA content, as measured by RIBOGREEN®. Results are presented as percent inhibition of TTC39B, relative to untreated control cells.
The chimeric antisense oligonucleotides in Tables 1 and 2 were designed as 5-10-5 MOE gapmers. The gapmers are 20 nucleotides in length, wherein the central gap segment is comprised of 10 2′-deoxynucleotides and is flanked on both sides (in the 5′ and 3′ directions) by wings comprising 5 nucleotides each. Each nucleotide in the 5′ wing segment and each nucleotide in the 3′ wing segment has a 2′-MOE modification. The internucleoside linkages throughout each gapmer are phosphorothioate (P═S) linkages. All cytosine residues throughout each gapmer are 5-methylcytosines. “Target start site” indicates the 5′-most nucleotide to which the gapmer is targeted. “Target stop site” indicates the 3′-most nucleotide to which the gapmer is targeted. Each gapmer listed in Table 1 is targeted to SEQ ID NO: 6 (GENBANK Accession No. NM_027238.2) and each gapmer listed in Table 2 is targeted to SEQ ID NO: 10 (the complement of GENBANK Accession No. NT—039260.7 truncated at nucleotides 22491001 to 22601000), SEQ ID NO: 11 (GENBANK Accession No. BY244623.1), SEQ ID NO: 12 (GENBANK Accession No. BY260936), SEQ ID NO: 13 (GENBANK Accession No. BM935568.1) or SEQ ID NO: 14 (GENBANK Accession No. BY728780.1).

| Substance | % inhibition of murine TTC39B mRNA |
| --- | --- |
| AAAATATCTCTGAAGTTTAA (antisense eA*eA*eA*eA*eT*dA*dT*d[5mC]*dT*d[5mC]*dT*dG*dA*dA*dG*eT*eT*eT*eA*eA) [ISIS 447136] | 24% |
| ACAAAGTGAAAGCCGCTGGT (antisense eA*e[5mC]*eA*eA*eA*dG*dT*dG*dA*dA*dA*dG*d[5mC]*d[5mC]*dG*e[5mC]*eT*eG*eG*eT) [ISIS 447103] | 64% |
| ACAGTATCTTGAACATGACA (antisense eA*e[5mC]*eA*eG*eT*dA*dT*d[5mC]*dT*dT*dG*dA*dA*d[5mC]*dA*eT*eG*eA*e[5mC]*eA) [ISIS 447147] | 46% |
| AGATACAAGTCCCTTCTGCC (antisense eA*eG*eA*eT*eA*d[5mC]*dA*dA*dG*dT*d[5mC]*d[5mC]*d[5mC]*dT*dT*e[5mC]*eT*eG*e[5mC]*e[5mC]) [ISIS 447137] | 50% |
| AGCATCAAATTAAAGGCCCC (antisense eA*eG*e[5mC]*eA*eT*d[5mC]*dA*dA*dA*dT*dT*dA*dA*dA*dG*eG*e[5mC]*e[5mC]*e[5mC]*e[5mC]) [ISIS 447113] | 59% |
| AGGACCTTGATGGCCTTGTC (antisense eA*eG*eG*eA*e[5mC]*d[5mC]*dT*dT*dG*dA*dT*dG*dG*d[5mC]*d[5mC]*eT*eT*eG*eT*e[5mC]) [ISIS 447130] | 44% |
| AGTATGAGGGAGCCATTTGG (antisense eA*eG*eT*eA*eT*dG*dA*dG*dG*dG*dA*dG*d[5mC]*d[5mC]*dA*eT*eT*eT*eG*eG) [ISIS 447117] | 47% |
| ATCCACATTAATTCCCAGTA (antisense eA*eT*e[5mC]*e[5mC]*eA*d[5mC]*dA*dT*dT*dA*dA*dT*dT*d[5mC]*d[5mC]*e[5mC]*eA*eG*eT*eA) [ISIS 447120] | 65% |
| CAGTAAAGTCTTGATTCTGC (antisense e[5mC]*eA*eG*eT*eA*dA*dA*dG*dT*d[5mC]*dT*dT*dG*dA*dT*eT*e[5mC]*eT*eG*e[5mC]) [ISIS 447126] | 58% |
| CATCATTTCCAGGGCTGGCA (antisense e[5mC]*eA*eT*e[5mC]*eA*dT*dT*dT*d[5mC]*d[5mC]*dA*dG*dG*dG*d[5mC]*eT*eG*eG*e[5mC]*eA) [ISIS 447125] | 54% |
| CCAGACAGACACTCAGACCA (antisense e[5mC]*e[5mC]*eA*eG*eA*d[5mC]*dA*dG*dA*d[5mC]*dA*d[5mC]*dT*d[5mC]*dA*eG*eA*e[5mC]*e[5mC]*eA) [ISIS 447149] | 48% |
| CCCCGTTCCAAGCTTGACTC (antisense e[5mC]*e[5mC]*e[5mC]*e[5mC]*eG*dT*dT*d[5mC]*d[5mC]*dA*dA*dG*d[5mC]*dT*dT*eG*eA*e[5mC]*eT*e[5mC]) [ISIS 447112] | 62% |
| CCGCACACCCACAGGGAACT (antisense e[5mC]*e[5mC]*eG*e[5mC]*eA*d[5mC]*dA*d[5mC]*d[5mC]*d[5mC]*dA*d[5mC]*dA*dG*dG*eG*eA*eA*e[5mC]*eT) [ISIS 447099] | 56% |
| CCTGATAAATCACAAATGCT (antisense e[5mC]*e[5mC]*eT*eG*eA*dT*dA*dA*dA*dT*d[5mC]*dA*d[5mC]*dA*dA*eA*eT*eG*e[5mC]*eT) [ISIS 447150] | 46% |
| CGTGTCATTTATTAAATAAC (antisense e[5mC]*eG*eT*eG*eT*d[5mC]*dA*dT*dT*dT*dA*dT*dT*dA*dA*eA*eT*eA*eA*e[5mC]) [ISIS 447154] | 22% |
| CTTTATTGTACCTGCCAGTC (antisense e[5mC]*eT*eT*eT*eA*dT*dT*dG*dT*dA*d[5mC]*d[5mC]*dT*dG*d[5mC]*e[5mC]*eA*eG*eT*e[5mC]) [ISIS 447134] | 53% |
| GACAGCCTGCAACACCACAA (antisense eG*eA*e[5mC]*eA*eG*d[5mC]*d[5mC]*dT*dG*d[5mC]*dA*dA*d[5mC]*dA*d[5mC]*e[5mC]*eA*e[5mC]*eA*eA) [ISIS 447105] | 52% |
| GACTTTGAGATGGCACACAA (antisense eG*eA*e[5mC]*eT*eT*dT*dG*dA*dG*dA*dT*dG*dG*d[5mC]*dA*e[5mC]*eA*e[5mC]*eA*eA) [ISIS 447152] | 60% |
| GACTTTTAATTCAAAGTCCT (antisense eG*eA*e[5mC]*eT*eT*dT*dT*dA*dA*dT*dT*d[5mC]*dA*dA*dA*eG*eT*e[5mC]*e[5mC]*eT) [ISIS 447153] | 58% |
| GAGTACATTCAAATACAGGA (antisense eG*eA*eG*eT*eA*d[5mC]*dA*dT*dT*d[5mC]*dA*dA*dA*dT*dA*e[5mC]*eA*eG*eG*eA) [ISIS 447139] | 58% |
| GCAGCCATGGCCCTGGGTCA (antisense eG*e[5mC]*eA*eG*e[5mC]*d[5mC]*dA*dT*dG*dG*d[5mC]*d[5mC]*d[5mC]*dT*dG*eG*eG*eT*e[5mC]*eA) [ISIS 447141] | 40% |
| GCAGCTTTCAAGAACACATA (antisense eG*e[5mC]*eA*eG*e[5mC]*dT*dT*dT*d[5mC]*dA*dA*dG*dA*dA*d[5mC]*eA*e[5mC]*eA*eT*eA) [ISIS 447123] | 47% |

Same assay, conditions: 100 nM, cytofectin, ~24 h, vs untreated control; gapmers targeted to SEQ ID NO: 10-14

| Substance | % inhibition of murine TTC39B mRNA |
| --- | --- |
| AAAGAGGAGTCCTTCCTTAA (antisense eA*eA*eA*eG*eA*dG*dG*dA*dG*dT*d[5mC]*d[5mC]*dT*dT*d[5mC]*e[5mC]*eT*eT*eA*eA) [ISIS 447160] | 63% |
| ACTCAGTCATACTTTTGGCA (antisense eA*e[5mC]*eT*e[5mC]*eA*dG*dT*d[5mC]*dA*dT*dA*d[5mC]*dT*dT*dT*eT*eG*eG*e[5mC]*eA) [ISIS 447168] | 35% |
| AGCCTTGTTCACTGGGAAGA (antisense eA*eG*e[5mC]*e[5mC]*eT*dT*dG*dT*dT*d[5mC]*dA*d[5mC]*dT*dG*dG*eG*eA*eA*eG*eA) [ISIS 447162] | 59% |
| ATCATATTTTCATCCTGAAA (antisense eA*eT*e[5mC]*eA*eT*dA*dT*dT*dT*dT*d[5mC]*dA*dT*d[5mC]*d[5mC]*eT*eG*eA*eA*eA) [ISIS 447170] | 35% |
| CCTTACCAAATTAAAGGCCC (antisense e[5mC]*e[5mC]*eT*eT*eA*d[5mC]*d[5mC]*dA*dA*dA*dT*dT*dA*dA*dA*eG*eG*e[5mC]*e[5mC]*e[5mC]) [ISIS 447171] | 23% |
| CGGAGATCAGTTTCTTCACT (antisense e[5mC]*eG*eG*eA*eG*dA*dT*d[5mC]*dA*dG*dT*dT*dT*d[5mC]*dT*eT*e[5mC]*eA*e[5mC]*eT) [ISIS 447165] | 50% |
| CTGATGAACTTGATTTAGCC (antisense e[5mC]*eT*eG*eA*eT*dG*dA*dA*d[5mC]*dT*dT*dG*dA*dT*dT*eT*eA*eG*e[5mC]*e[5mC]) [ISIS 447166] | 0% |
| GAATTATTTATTCTCACACC (antisense eG*eA*eA*eT*eT*dA*dT*dT*dT*dA*dT*dT*d[5mC]*dT*d[5mC]*eA*e[5mC]*eA*e[5mC]*e[5mC]) [ISIS 447167] | 56% |
| GCCAGCCAGGGCAGGCACTC (antisense eG*e[5mC]*e[5mC]*eA*eG*d[5mC]*d[5mC]*dA*dG*dG*dG*d[5mC]*dA*dG*dG*e[5mC]*eA*e[5mC]*eT*e[5mC]) [ISIS 447163] | 50% |
| GCCCATGCACGGGTGGAGGA (antisense eG*e[5mC]*e[5mC]*e[5mC]*eA*dT*dG*d[5mC]*dA*d[5mC]*dG*dG*dG*dT*dG*eG*eA*eG*eG*eA) [ISIS 447156] | 16% |

Tested on: murine TTC39C mRNA
Experiment: Dose-dependent antisense inhibition of murine TTC39C in mouse primary hepatocytes
Format: cell-based
Settings: 500.0 nM, electroporation, ~16 h
Method: Thirty antisense oligonucleotides were selected from the study described in Example 8 and further tested at various doses in mouse primary hepatocytes. Cells were plated at a density of 30,000 cells per well and transfected using electroporation with 500 nM, 1,000 nM, 2,000 nM, 4,000 nM, and 8,000 nM concentrations of antisense oligonucleotide, as specified in Table 30. After a treatment period of approximately 16 hours, RNA was isolated from the cells and TTC39C mRNA levels were measured by quantitative real-time PCR. Murine primer probe set RTS3266 was used to measure mRNA levels. TTC39C mRNA levels were adjusted according to total RNA content, as measured by RIBOGREEN®. Results are presented as percent inhibition of TTC39C, relative to untreated control cells.

| Substance | percent inhibition of TTC39C mRNA |
| --- | --- |
| ISIS 474654: 5-10-5 MOE gapmer antisense oligonucleotide targeting murine TTC39C (antisense eT*e[5mC]*eA*eG*e[5mC]*dT*dA*d[5mC]*dA*dG*dA*dA*d[5mC]*dG*d[5mC]*eA*eG*eG*eG*eT) | 11% |

Same assay, conditions: 1000.0 nM, electroporation, ~16 h

| Substance | percent inhibition of TTC39C mRNA |
| --- | --- |
| ISIS 474654: 5-10-5 MOE gapmer antisense oligonucleotide targeting murine TTC39C (antisense eT*e[5mC]*eA*eG*e[5mC]*dT*dA*d[5mC]*dA*dG*dA*dA*d[5mC]*dG*d[5mC]*eA*eG*eG*eG*eT) | 14% |

Same assay, conditions: 2000.0 nM, electroporation, ~16 h

| Substance | percent inhibition of TTC39C mRNA |
| --- | --- |
| ISIS 474654: 5-10-5 MOE gapmer antisense oligonucleotide targeting murine TTC39C (antisense eT*e[5mC]*eA*eG*e[5mC]*dT*dA*d[5mC]*dA*dG*dA*dA*d[5mC]*dG*d[5mC]*eA*eG*eG*eG*eT) | 38% |

Same assay, conditions: 4000.0 nM, electroporation, ~16 h

| Substance | percent inhibition of TTC39C mRNA |
| --- | --- |
| ISIS 474654: 5-10-5 MOE gapmer antisense oligonucleotide targeting murine TTC39C (antisense eT*e[5mC]*eA*eG*e[5mC]*dT*dA*d[5mC]*dA*dG*dA*dA*d[5mC]*dG*d[5mC]*eA*eG*eG*eG*eT) | 60% |

Same assay, conditions: 8000.0 nM, electroporation, ~16 h

| Substance | percent inhibition of TTC39C mRNA |
| --- | --- |
| ISIS 474654: 5-10-5 MOE gapmer antisense oligonucleotide targeting murine TTC39C (antisense eT*e[5mC]*eA*eG*e[5mC]*dT*dA*d[5mC]*dA*dG*dA*dA*d[5mC]*dG*d[5mC]*eA*eG*eG*eG*eT) | 74% |

Same assay, conditions: mouse primary hepatocytes, electroporation, ~16 h

| Substance | pIC50 |
| --- | --- |
| ISIS 474654: 5-10-5 MOE gapmer antisense oligonucleotide targeting murine TTC39C (antisense eT*e[5mC]*eA*eG*e[5mC]*dT*dA*d[5mC]*dA*dG*dA*dA*d[5mC]*dG*d[5mC]*eA*eG*eG*eG*eT) | 5.51 |
